Data on 24 molecules can be found in PubChem BioAssay AID248 (DTP/NCI, 2004).

This test has as its system L1210 leukemia ip in BDF1 mice, survival T/C. Put plainly: NCI In Vivo Anticancer Drug Screen. Data for tumor model L1210 Leukemia (intraperitoneal) in B6D2F1 (BDF1) mice. To be noted: endpoint: mean survival time, higher = longer survival. In a few lines:
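Antitumor effect is assessed in tumor-bearing animals. Survival in the compound arm is compared with a vehicle-dosed control arm and expressed as their quotient.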

Where [1] appears, read: dose: 100.0 mg/kg/injection, schedule: Q04DX003 (ip), vehicle: saline with Tween-80.
The mark [2] stands for this setting: dose: 200.0 mg/kg/injection, schedule: Q04DX003 (ip), vehicle: saline with Tween-80.
The mark [3] stands for this setting: dose: 400.0 mg/kg/injection, schedule: Q04DX003 (ip), vehicle: saline with Tween-80.
Setting [4] is: dose: 100.0 mg/kg/injection, schedule: Q01DX001 (ip), vehicle: saline.
Setting [5] is: dose: 200.0 mg/kg/injection, schedule: Q01DX001 (ip), vehicle: saline.
The mark [6] stands for this setting: dose: 400.0 mg/kg/injection, schedule: Q01DX001 (ip), vehicle: saline.
[7] abbreviates: dose: 100.0 mg/kg/injection, schedule: Q01DX001 (ip), vehicle: Klucel (hydroxypropylcellulose) (HPC).
The mark [8] stands for this setting: dose: 100.0 mg/kg/injection, schedule: Q01DX009 (ip), vehicle: Klucel (hydroxypropylcellulose) (HPC).
[9] abbreviates: dose: 200.0 mg/kg/injection, schedule: Q01DX001 (ip), vehicle: Klucel (hydroxypropylcellulose) (HPC).
[10] abbreviates: dose: 200.0 mg/kg/injection, schedule: Q01DX009 (ip), vehicle: Klucel (hydroxypropylcellulose) (HPC).
The mark [11] stands for this setting: dose: 100.0 mg/kg/injection, schedule: Q01DX001 (ip), vehicle: carboxymethylcellulose (CMC).
The mark [12] stands for this setting: dose: 200.0 mg/kg/injection, schedule: Q01DX001 (ip), vehicle: carboxymethylcellulose (CMC).
Setting [13] is: dose: 400.0 mg/kg/injection, schedule: Q01DX001 (ip), vehicle: carboxymethylcellulose (CMC).
[14] abbreviates: dose: 100.0 mg/kg/injection, schedule: Q04DX003 (ip), vehicle: Klucel (hydroxypropylcellulose) (HPC).
[15] abbreviates: dose: 200.0 mg/kg/injection, schedule: Q04DX003 (ip), vehicle: Klucel (hydroxypropylcellulose) (HPC).
The mark [16] stands for this setting: dose: 400.0 mg/kg/injection, schedule: Q04DX003 (ip), vehicle: Klucel (hydroxypropylcellulose) (HPC).
The mark [17] stands for this setting: dose: 100.0 mg/kg/injection, schedule: Q01DX009 (ip), vehicle: saline with Tween-80.
[18] abbreviates: dose: 200.0 mg/kg/injection, schedule: Q01DX009 (ip), vehicle: saline with Tween-80.
The mark [19] stands for this setting: dose: 400.0 mg/kg/injection, schedule: Q01DX009 (ip), vehicle: saline with Tween-80.
[20] abbreviates: dose: 400.0 mg/kg/injection, schedule: Q01DX009 (ip), vehicle: Klucel (hydroxypropylcellulose) (HPC).

Where “and” joins values, the source holds several entries; their conditions need not be identical. Identical values can stand only once. Toxic doses and inconclusive results are not listed.

Take `CCCCCc1nc2c(c3c1CCCC3)CCCC2`: the T/C was 102 % of control (dose: 75.0 mg/kg/injection, schedule: Q01DX001 (ip), vehicle: other) and 96 % of control (dose: 150.0 mg/kg/injection, schedule: Q01DX001 (ip), vehicle: other).
In the case of `C=CCCCCCCCCC(N)=O`, the T/C is 108 % of control (dose: 25.0 mg/kg/injection, schedule: Q01DX009 (ip), vehicle: saline with Tween-80); 96 % of control (dose: 50.0 mg/kg/injection, schedule: Q01DX009 (ip), vehicle: saline with Tween-80); 101 % of control under setting [1]; 95 % of control under setting [2]; 184 % of control under setting [3].
For `CC(=O)OC1OCC(COC(=O)c2ccc([N+](=O)[O-])cc2)C1OC(=O)c1ccc([N+](=O)[O-])cc1` (centres undefined), the T/C reads like this: under setting [4], 92 % of control; under setting [5], 92 % of control; under setting [6], 95 % of control.
In the case of `O=C(O)C1CC2(CCC1c1ccccc1)SCCS2` (centres undefined), the T/C is 95 % of control (dose: 50.0 mg/kg/injection, schedule: Q01DX009 (ip), vehicle: Klucel (hydroxypropylcellulose) (HPC)); 97 % of control under setting [7]; 93 % of control under setting [8]; 100 % of control under setting [9]; 96 % of control under setting [10]; 96 % of control (dose: 400.0 mg/kg/injection, schedule: Q01DX001 (ip), vehicle: Klucel (hydroxypropylcellulose) (HPC)).
In the case of `Cc1coc(NS(=O)(=O)c2ccc(N=Nc3c(N)n(C)c(=O)n(C)c3=O)cc2)c1C`, the T/C under setting [11] was 98 % of control, the T/C under setting [12] was 95 % of control and the T/C under setting [13] is 98 % of control.
Regarding `N#CC(c1ccccc1)N1CCCCC1` (centres undefined), the T/C runs as follows: under setting [14], 101 % of control; under setting [15], 107 % of control; under setting [16], 91 % of control.
In the case of `CSc1ccc([N+](=O)[O-])cc1`, the T/C by setting is: under setting [14], 104 % of control; under setting [15], 100 % of control.
Take `COC(=O)/C=C(/Nc1cccc2ccccc12)C(=O)OC`: the T/C was 102 % of control (dose: 50.0 mg/kg/injection, schedule: Q01DX001 (ip), vehicle: Klucel (hydroxypropylcellulose) (HPC)); 96 % of control under setting [7]; 114 % of control under setting [9].
For `CC(C)(C)c1ccc(S(=O)(=O)c2ccc(C(C)(C)C)cc2)cc1`, the T/C is 94 % of control under setting [14], 105 % of control under setting [15] and 91 % of control under setting [16].
As to `c1ccc2cc(Sc3ncnc4nc[nH]c34)ccc2c1`, the T/C is 97 % of control under setting [17]; 105 % of control under setting [1]; 103 % of control under setting [18]; 98 % of control under setting [2]; 97 % of control under setting [19]; 98 % of control under setting [3].
With `O=C(NC(Cc1ccccc1)C(=O)O)OCc1ccccc1` (centres undefined), the T/C reads like this: under setting [17], 98 % of control; under setting [1], 105 % of control; under setting [18], 98 % of control; under setting [2], 94 % of control; under setting [19], 88 % of control; under setting [3], 96 % of control.
As for `O=C(COc1ccc(Cl)cc1Cl)OCCBr`, the T/C by setting is: (dose: 100.0 mg/kg/injection, schedule: Q04DX002 (ip), vehicle: other) 96 % of control; (dose: 200.0 mg/kg/injection, schedule: Q04DX002 (ip), vehicle: other) 118 % of control; (dose: 400.0 mg/kg/injection, schedule: Q04DX002 (ip), vehicle: other) 93 % of control.
As for `CCN(CC)c1ccc(C=Nc2cccc(C(F)(F)F)c2)cc1`, the T/C was 105 % of control under setting [8]; 92 % of control under setting [14]; 94 % of control under setting [10]; 94 % of control under setting [15]; 97 % of control under setting [16].
On to `COc1ccc(OC)c(NC(=S)NC(=O)c2ccccc2F)c1`, for which the T/C is 94 % of control under setting [17] and 86 % of control under setting [18].
For `S=C(Nc1ccccc1)Nc1ncn[nH]1`, the T/C (dose: 75.0 mg/kg/injection, schedule: Q01DX001 (ip), vehicle: carboxymethylcellulose (CMC)) is 95 % of control; the T/C (dose: 150.0 mg/kg/injection, schedule: Q01DX001 (ip), vehicle: carboxymethylcellulose (CMC)) is 98 % of control; the T/C (dose: 300.0 mg/kg/injection, schedule: Q01DX001 (ip), vehicle: carboxymethylcellulose (CMC)) was 88 % of control.
With `Cc1ccc(CC(=O)c2c(C)[nH]c3ccccc23)cc1C`, the T/C was 108 % of control (dose: 50.0 mg/kg/injection, schedule: Q01DX001 (ip), vehicle: saline); 96 % of control under setting [4]; 96 % of control under setting [5]; 96 % of control under setting [6].
For the molecule `CSc1nsc(SC)c1C#N`, the T/C was 103 % of control under setting [8], 97 % of control under setting [10] and 92 % of control under setting [20].
For the molecule `O=C(c1ccccc1)C(Br)C(c1ccccc1)c1ccccc1` (centres undefined), the T/C is, setting by setting: under setting [8], 94 % of control; under setting [14], 104 % of control; under setting [10], 94 % of control; under setting [15], 104 % of control; under setting [20], 100 % of control; under setting [16], 98 % of control.
Consider `CC1(CBr)Oc2ccccc2O1`, for which the T/C under setting [8] is 115 % of control, the T/C under setting [10] was 97 % of control and the T/C under setting [20] was 101 % of control.
Consider `CCCCCCCCOC(=O)c1ccccc1C(=O)OCCCCCCCC`, for which the T/C under setting [8] is 96 % of control; the T/C under setting [14] was 97 % of control; the T/C under setting [10] is 94 % of control; the T/C under setting [15] is 93 % of control; the T/C under setting [20] was 96 % of control; the T/C under setting [16] was 92 % of control.
As to `Cc1ccc2c(c1)CC=CO2`, the T/C is, setting by setting: (dose: 50.0 mg/kg/injection, schedule: Q01DX009 (ip), vehicle: carboxymethylcellulose (CMC)) 91 % of control; under setting [11], 96 % of control; (dose: 100.0 mg/kg/injection, schedule: Q01DX009 (ip), vehicle: carboxymethylcellulose (CMC)) 94 % of control and 97 % of control; under setting [17], 88 % of control; under setting [1], 101 % of control; under setting [12], 96 % of control. In addition, the T/C (dose: 200.0 mg/kg/injection, schedule: Q01DX009 (ip), vehicle: carboxymethylcellulose (CMC)) was 94 % of control and 95 % of control; the T/C under setting [2] is 97 % of control; the T/C under setting [13] is 100 % of control; the T/C (dose: 400.0 mg/kg/injection, schedule: Q01DX009 (ip), vehicle: carboxymethylcellulose (CMC)) is 96 % of control; the T/C under setting [19] was 92 % of control; the T/C under setting [3] is 98 % of control.
As to `ClCc1ccc(CCl)c(Cl)c1`, the T/C runs as follows: (dose: 25.0 mg/kg/injection, schedule: Q04DX003 (ip), vehicle: Klucel (hydroxypropylcellulose) (HPC)) 86 % of control; (dose: 50.0 mg/kg/injection, schedule: Q04DX003 (ip), vehicle: Klucel (hydroxypropylcellulose) (HPC)) 97 % of control; under setting [14], 94 % of control.
In the case of `C/C(CC(C)C)=N\NC(=O)Nc1ccc(Cl)c(Cl)c1`, the T/C under setting [17] was 100 % of control and 112 % of control; the T/C (dose: 100.0 mg/kg/injection, schedule: Q04DX002 (ip), vehicle: saline) is 94 % of control and 106 % of control; the T/C (dose: 100.0 mg/kg/injection, schedule: Q04DX003 (ip), vehicle: saline) is 92 % of control; the T/C under setting [18] is 101 % of control and 112 % of control; the T/C (dose: 200.0 mg/kg/injection, schedule: Q04DX002 (ip), vehicle: saline) was 93 % of control and 105 % of control; the T/C (dose: 200.0 mg/kg/injection, schedule: Q04DX003 (ip), vehicle: saline) was 95 % of control. In addition, the T/C is 101 % of control and 106 % of control under setting [19]; 95 % of control and 105 % of control (dose: 400.0 mg/kg/injection, schedule: Q04DX002 (ip), vehicle: saline); 113 % of control (dose: 400.0 mg/kg/injection, schedule: Q04DX003 (ip), vehicle: saline).
Turning to `NC(=S)N/N=C/c1ccccc1N`, the T/C was 102 % of control under setting [17], 96 % of control under setting [18] and 96 % of control under setting [19].
